Test results taken from the supplement of paper PMC4862054.

How the values were obtained:
Conditions in all cases: incubation time: 72 h
BT-474 [1] = test: normalised response (% of control), CellTox Green; higher = less cell death (100 = DMSO, 0 = benzethonium chloride kill control)
Outline: (§1)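 Every value is a normalised signal taken at one concentration of a dilution series. Compound was placed in 384-well plates at 5 concentrations in 10-fold steps over a compound-specific 10,000-fold range, and 20 µl of breast cancer cell suspension was seeded onto it. After 72 h, CellTox Green fluorescence (485/520 nm) was measured first and CellTiter-Glo luminescence second, following 10 min at room temperature. Each plate was scaled to 0.1 % DMSO (100) and a positive kill control (0).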

BT-549 [2] = test: as above
Outline: as §1

CAL-120 [3] = test: as above
Outline: as §1

CAL-148 [4] = test: as above
Outline: as §1

CAL-51 [5] = test: as above
Outline: as §1

CAL-85-1 [6] = test: as above
Outline: as §1

DU-4475 [7] = test: as above
Outline: as §1

HCC1143 [8] = test: as above
Outline: as §1

HCC1599 [9] = test: as above
Outline: as §1

HCC1937 [10] = test: as above
Outline: as §1

HDQ-P1 [11] = test: as above
Outline: as §1

Hs578T [12] = test: as above
Outline: as §1

MDA-MB-231 [13] = test: as above
Outline: as §1

MDA-MB-436 [14] = test: as above
Outline: as §1

MDA-MB-453 [15] = test: as above
Outline: as §1

MDA-MB-468 [16] = test: as above
Outline: as §1

MFM-223 [17] = test: as above
Outline: as §1

BT-474 [18] = test: normalised response (% of control), CellTiter-Glo; higher = more viable cells (100 = DMSO, 0 = benzethonium chloride kill control)
Procedure: (§2)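 DSRT, 72 h incubation, CellTox Green / CellTiter-Glo readout. Signal is normalised to DMSO and benzethonium chloride controls. Value is the normalised response at dose 3.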

BT-549 [19] = test: as above
Procedure: as §2

CAL-120 [20] = test: as above
Procedure: as §2

CAL-148 [21] = test: as above
Procedure: as §2

CAL-51 [22] = test: as above
Procedure: as §2

CAL-85-1 [23] = test: as above
Procedure: as §2

DU-4475 [24] = test: as above
Procedure: as §2

HCC1143 [25] = test: as above
Procedure: as §2

HCC1599 [26] = test: as above
Procedure: as §2

HCC1937 [27] = test: as above
Procedure: as §2

HDQ-P1 [28] = test: as above
Procedure: as §2

Hs578T [29] = test: as above
Procedure: as §2

MCF-10A [30] = test: as above
Procedure: as §2

MDA-MB-231 [31] = test: as above
Procedure: as §2

MDA-MB-436 [32] = test: as above
Procedure: as §2

MDA-MB-453 [33] = test: as above
Procedure: as §2

MDA-MB-468 [34] = test: as above
Procedure: as §2

MFM-223 [35] = test: as above
Procedure: as §2

SK-BR-3 = test: as above
Procedure: as §2

MCF-10A [36] = test: normalised response (% of control), CellTox Green; higher = less cell death (100 = DMSO, 0 = benzethonium chloride kill control)
Outline: as §1

| Structure (SMILES) | normalised response (BT-474 [1]) [%] | normalised response (BT-549 [2]) [%] | normalised response (CAL-120 [3]) [%] | normalised response (CAL-148 [4]) [%] | normalised response (CAL-51 [5]) [%] | normalised response (CAL-85-1 [6]) [%] | normalised response (DU-4475 [7]) [%] | normalised response (HCC1143 [8]) [%] | normalised response (HCC1599 [9]) [%] | normalised response (HCC1937 [10]) [%] | normalised response (HDQ-P1 [11]) [%] | normalised response (Hs578T [12]) [%] | normalised response (MDA-MB-231 [13]) [%] | normalised response (MDA-MB-436 [14]) [%] | normalised response (MDA-MB-453 [15]) [%] | normalised response (MDA-MB-468 [16]) [%] | normalised response (MFM-223 [17]) [%] | normalised response (BT-474 [18]) [%] | normalised response (BT-549 [19]) [%] | normalised response (CAL-120 [20]) [%] | normalised response (CAL-148 [21]) [%] | normalised response (CAL-51 [22]) [%] | normalised response (CAL-85-1 [23]) [%] | normalised response (DU-4475 [24]) [%] | normalised response (HCC1143 [25]) [%] | normalised response (HCC1599 [26]) [%] | normalised response (HCC1937 [27]) [%] | normalised response (HDQ-P1 [28]) [%] | normalised response (Hs578T [29]) [%] | normalised response (MCF-10A [30]) [%] | normalised response (MDA-MB-231 [31]) [%] | normalised response (MDA-MB-436 [32]) [%] | normalised response (MDA-MB-453 [33]) [%] | normalised response (MDA-MB-468 [34]) [%] | normalised response (MFM-223 [35]) [%] | normalised response (SK-BR-3) [%] | normalised response (MCF-10A [36]) [%] |
| --- | --- | --- | --- | --- | --- | --- | --- | --- | --- | --- | --- | --- | --- | --- | --- | --- | --- | --- | --- | --- | --- | --- | --- | --- | --- | --- | --- | --- | --- | --- | --- | --- | --- | --- | --- | --- | --- |
| CC(C)c1c(C(=O)Nc2ccccc2)c(-c2ccccc2)c(-c2ccc(F)cc2)n1CC[C@@H](O)C[C@@H](O)CC(=O)O [Atorvastatin] (100 nM) | 103 | 98.1 | 98.4 | 80.9 | 109 | 94.1 | 103 | 109 | 88.1 | 81.6 | 86.4 | 93.4 | 105 | 109 | 99.2 | 120 | 98 | 94.8 | 94 | 103 | 108 | 103 | 103 | 98.6 | 103 | 105 | 102 | 98 | 102 | 98.4 | 97.5 | 91.5 | 111 | 93.8 | 98.9 | 98.9 |  |
| O=C1NC(=O)[C@@H](c2cn3c4c(cccc24)CCC3)[C@@H]1c1c[nH]c2ccccc12 [Tivantinib] (10 nM) | 97.8 | 104 | 103 | 78.8 | 102 | 102 | 100 | 105 | 103 | 106 | 109 | 110 | 105 | 90.1 | 106 | 131 | 98.9 | 104 | 98.3 | 96.3 | 98.4 | 106 | 99.2 | 104 | 97.8 | 105 | 97.6 | 100 | 92.6 | 103 | 103 | 102 | 85 | 99.6 | 99.6 | 99.4 | 84.5 |
| Cc1ccc(NC(=O)c2ccc(CN3CCN(C)CC3)cc2)cc1Nc1nccc(-c2cccnc2)n1 [Imatinib] (100 nM) | 99.8 | 104 | 96.8 |  | 106 | 102 | 102 | 63.2 | 108 | 112 | 111 | 62.7 | 119 | 110 | 102 | 110 | 101 | 99 | 109 | 106 | 111 | 107 | 97.9 | 103 | 104 | 97 | 98 | 98.6 | 106 | 104 | 96.8 | 103 | 111 | 106 | 107 | 105 | 70.4 |
| C[C@]12CC[C@H](O)CC1=CC[C@@H]1[C@@H]2CC[C@]2(C)C(c3cccnc3)=CC[C@@H]12 [Abiraterone] (50 nM) | 100 | 96.5 | 101 | 106 | 105 | 95 | 101 | 109 | 110 | 116 | 111 | 107 | 58 | 96.5 | 104 | 128 | 108 | 104 | 101 | 106 | 108 | 81.5 | 105 | 107 | 104 | 124 | 95.1 | 100 | 104 | 99.8 | 103 | 99.7 | 99.7 | 101 | 105 | 103 | 63.7 |
